# Source: ChEMBL document CHEMBL1201862, “PubChem BioAssay data set” (2004)
#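 All cell lines were grown in 96-well plates and treated with compound for 48 hours. Here, GI50 denotes the concentration required for 50% inhibition of growth.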 The source made the active and inactive calls. Rule as the data show it: active = GI50 up to about 1.1 µM and inactive = higher.
# What was measured:
# Assay in all cases: growth of human tumour cells (NCI), 48 h
# 786-0 = tested on: 786-0
# A498 = tested on: A498
# A549 = tested on: A549
# ACHN = tested on: ACHN
# CCRF-CEM = tested on: CCRF-CEM
# COLO 205 = tested on: COLO 205
# DU-145 = tested on: DU-145
# EKVX = tested on: EKVX
# HCT-116 = tested on: HCT-116
# HCT-15 = tested on: HCT-15
# HOP-62 = tested on: HOP-62
# HT-29 = tested on: HT-29
# Hs-578T = tested on: Hs-578T
# IGROV-1 = tested on: IGROV-1
# K562 = tested on: K562
# KM12 = tested on: KM12
# LOX IMVI = tested on: LOX IMVI
# M14 = tested on: M14
# MCF7 = tested on: MCF7
# MDA-MB-231 = tested on: MDA-MB-231
# MDA-MB-435 = tested on: MDA-MB-435
# MDA-N = tested on: MDA-N
# MOLT-4 = tested on: MOLT-4
# Malme-3M = tested on: Malme-3M
# NCI-H226 = tested on: NCI-H226
# NCI-H23 = tested on: NCI-H23
# NCI/ADR-RES = tested on: NCI/ADR-RES
# OVCAR-3 = tested on: OVCAR-3
# OVCAR-4 = tested on: OVCAR-4
# OVCAR-5 = tested on: OVCAR-5
# OVCAR-8 = tested on: OVCAR-8
# PC-3 = tested on: PC-3
# RPMI-8226 = tested on: RPMI-8226
# SF-268 = tested on: SF-268
# SF-295 = tested on: SF-295
# SK-MEL-28 = tested on: SK-MEL-28
# SK-MEL-2 = tested on: SK-MEL-2
# SK-MEL-5 = tested on: SK-MEL-5
# SK-OV-3 = tested on: SK-OV-3
# SN12C = tested on: SN12C
# SNB-19 = tested on: SNB-19
# SNB-75 = tested on: SNB-75
# SR = tested on: SR
# SW-620 = tested on: SW-620
# TK-10 = tested on: TK-10
# U-251 = tested on: U-251
# UACC-257 = tested on: UACC-257
# UACC-62 = tested on: UACC-62
# UO-31 = tested on: UO-31
smiles,measurement,setting,value
COc1cc2oc(=O)cc(C)c2c(OC)c1OC(C)=O,GI50,786-0,> 100 µM (inactive)
same,GI50,A498,> 100 µM (inactive)
same,GI50,A549,> 100 µM (inactive)
same,GI50,ACHN,> 100 µM (inactive)
same,GI50,CCRF-CEM,> 100 µM (inactive)
same,GI50,COLO 205,> 100 µM (inactive)
same,GI50,DU-145,> 100 µM (inactive)
same,GI50,EKVX,> 100 µM (inactive)
same,GI50,HCT-116,> 100 µM (inactive)
same,GI50,HCT-15,> 100 µM
same,GI50,HOP-62,> 100 µM (inactive)
same,GI50,HT-29,> 100 µM (inactive)
same,GI50,Hs-578T,> 100 µM (inactive)
same,GI50,IGROV-1,> 100 µM (inactive)
same,GI50,K562,> 100 µM (inactive)
same,GI50,KM12,> 100 µM (inactive)
same,GI50,LOX IMVI,> 100 µM (inactive)
same,GI50,M14,> 100 µM (inactive)
same,GI50,MCF7,> 100 µM (inactive)
same,GI50,MDA-MB-231,> 100 µM (inactive)
same,GI50,MDA-MB-435,> 100 µM (inactive)
same,GI50,MDA-N,> 100 µM (inactive)
same,GI50,MOLT-4,> 100 µM (inactive)
same,GI50,Malme-3M,> 100 µM (inactive)
same,GI50,NCI-H226,> 100 µM (inactive)
same,GI50,NCI-H23,> 100 µM (inactive)
same,GI50,NCI/ADR-RES,> 100 µM (inactive)
same,GI50,OVCAR-3,> 100 µM (inactive)
same,GI50,OVCAR-4,> 100 µM (inactive)
same,GI50,OVCAR-5,> 100 µM (inactive)
same,GI50,OVCAR-8,> 100 µM (inactive)
same,GI50,PC-3,> 100 µM (inactive)
same,GI50,RPMI-8226,> 100 µM (inactive)
same,GI50,SF-268,> 100 µM (inactive)
same,GI50,SF-295,> 100 µM (inactive)
same,GI50,SK-MEL-28,> 100 µM (inactive)
same,GI50,SK-MEL-2,> 100 µM (inactive)
same,GI50,SK-MEL-5,> 100 µM (inactive)
same,GI50,SK-OV-3,> 100 µM (inactive)
same,GI50,SN12C,> 100 µM (inactive)
same,GI50,SNB-19,> 100 µM (inactive)
same,GI50,SNB-75,> 100 µM (inactive)
same,GI50,SR,> 100 µM (inactive)
same,GI50,SW-620,> 100 µM (inactive)
same,GI50,TK-10,> 100 µM (inactive)
same,GI50,U-251,> 100 µM (inactive)
same,GI50,UACC-257,> 100 µM (inactive)
same,GI50,UACC-62,> 100 µM (inactive)
same,GI50,UO-31,> 100 µM (inactive)
